Measurements reported in US20230399312A1, “SUBSTITUTED PYRIMIDINES AND METHODS OF USE” (THERAVANCE BIOPHARMA R&D IP, LLC, priority 2020, published 2023).

Experiments:
[1] = molecular target: T1, recombinant human ALK5 (TGF-βR1) protein (Homo sapiens, UniProt P36897); assay: Biochemical ALK5 (TGF-βR1) assay to measure pKi (LANCE Ultra ULight kinase assay); details: apparent pKi, converted from pIC50 by Cheng-Prusoff
T1 construct: purchased Life Technologies PR9075A
T1 sequence (P36897 34-503): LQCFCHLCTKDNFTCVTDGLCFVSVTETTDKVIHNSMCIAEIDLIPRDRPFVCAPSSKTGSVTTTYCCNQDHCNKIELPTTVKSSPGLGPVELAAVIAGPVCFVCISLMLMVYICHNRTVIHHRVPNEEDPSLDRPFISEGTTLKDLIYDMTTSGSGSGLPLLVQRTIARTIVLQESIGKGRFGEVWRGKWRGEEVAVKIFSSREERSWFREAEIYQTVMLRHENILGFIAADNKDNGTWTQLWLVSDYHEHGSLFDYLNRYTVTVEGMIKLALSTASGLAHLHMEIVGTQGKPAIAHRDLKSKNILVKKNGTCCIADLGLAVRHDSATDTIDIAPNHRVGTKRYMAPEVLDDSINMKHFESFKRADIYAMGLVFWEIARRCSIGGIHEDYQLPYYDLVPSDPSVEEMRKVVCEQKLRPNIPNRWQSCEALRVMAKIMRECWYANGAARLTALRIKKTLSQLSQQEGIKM
How it was run: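 Europium TR-FRET kinase assay: the enzyme is exposed to compound for 60 min at room temperature, and reaction with ATP runs 60 min at 37 °C. Percent inhibition relative to DMSO and SD-208 controls gives pIC50, which is converted to pKi.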

[2] = system: TGF-β-stimulated SMAD3 phosphorylation in BEAS-2B cells; assay: Cellular ALK5 potency assay, inhibition of TGF-β stimulated pSMAD3 formation in BEAS-2B cells; assay type: cell-based; details: Homo sapiens, pSMAD3, TGF-β 10 ng/mL, read-out: BEAS2B pIC50 (converted)
How it was run: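 Human lung epithelial BEAS-2B cells were preincubated 1 h at 37 °C with compound in HBSS/HEPES/1% BSA, then stimulated 30 min with 10 ng/mL TGF-β. pSMAD3 in lysates was quantified by AlphaLISA relative to untreated stimulated cells; reported as pIC50.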

Row | SMILES | Ki [1] [nM] | IC50 [2] [nM]
1 | Cc1cccc(-c2nccc(Nc3ccnc(Nc4csc(C(=O)O)c4)n3)n2)n1 [Compound 386, 4-[[4-[[2-(6-methyl-2-pyridyl)pyrimidin-4-yl]amino]pyrimidin-2-yl]amino]thiophene-2-carboxylic acid] | 0.398 to 3.16 | 1580 to 10000
2 | Cc1cccc(-c2nccc(Nc3ccnc(Nc4ccc(NS(=O)(=O)c5c[nH]cn5)cc4)n3)n2)n1 [Compound 455, N-[4-[[4-[[2-(6-methyl-2-pyridyl)pyrimidin-4-yl]amino]pyrimidin-2-yl]amino]phenyl]-1H-imidazole-4-sulfonamide] | 0.398 to 3.16 | 200 to 1260
3 | Cc1cccc(-c2nccc(Nc3ccnc(Nc4nc(C(=O)OC[C@@H]5CCNC5)cs4)n3)n2)n1 [Compound 611, [(3R)-pyrrolidin-3-yl]methyl 2-[[4-[[2-(6-methyl-2-pyridyl)pyrimidin-4-yl]amino]pyrimidin-2-yl]amino]thiazole-4-carboxylate] | 0.398 to 3.16 | 200 to 1260
4 | Cc1cccc(-c2nccc(Nc3ccnc(Nc4ccc(N5CCC(C(=O)OCC6CNC6)CC5)cc4)n3)n2)n1 [Compound 368, azetidin-3-ylmethyl 1-[4-[[4-[[2-(6-methyl-2-pyridyl)pyrimidin-4-yl]amino]pyrimidin-2-yl]amino]phenyl]piperidine-4-carboxylate] | 0.0398 to 0.316 | 25.1 to 158
5 | Cc1cccc(-c2nccc(Nc3ccnc(Nc4ccc(NC(=O)C5CCN(C6CCOCC6)CC5)cc4)n3)n2)n1 [Compound 77, N-[4-[[4-[[2-(6-methyl-2-pyridyl)pyrimidin-4-yl]amino]pyrimidin-2-yl]amino]phenyl]-1-tetrahydropyran-4-yl-piperidine-4-carboxamide] | 0.0398 to 0.316 | 25.1 to 158
6 | Cc1cccc(-c2nccc(Nc3ccnc(Nc4cccc(NCC5CNC5)c4)n3)n2)n1 [Compound 118, N2-[3-(azetidin-3-ylmethylamino)phenyl]-N4-[2-(6-methyl-2-pyridyl)pyrimidin-4-yl]pyrimidine-2,4-diamine] | 0.0398 to 0.316 | 25.1 to 158
7 | Cc1cccc(-c2nccc(Nc3ccnc(Nc4ccc(-c5cn(Cc6ccccc6)nn5)cc4)n3)n2)n1 [Compound 333, N2-[4-(1-benzyltriazol-4-yl)phenyl]-N4-[2-(6-methyl-2-pyridyl)pyrimidin-4-yl]pyrimidine-2,4-diamine] | 3.98 to 31.6 | 25.1 to 158
8 | Cc1cccc(-c2nccc(Nc3ccnc(Nc4cc(C(=O)OCCN5CCNCC5)ccn4)n3)n2)n1 [Compound 624, 2-piperazin-1-ylethyl 2-[[4-[[2-(6-methyl-2-pyridyl)pyrimidin-4-yl]amino]pyrimidin-2-yl]amino]pyridine-4-carboxylate] | 3.98 to 31.6 | 200 to 1260
9 | Cc1cccc(-c2nccc(Nc3ccnc(Nc4ccc(C)c(CN5C[C@@H](C)N[C@@H](C)C5)c4)n3)n2)n1 [Compound 81, N4-[2-(6-methyl-2-pyridyl)pyrimidin-4-yl]-N2-[4-methyl-3-[[rac-(3R,5S)-3,5-dimethylpiperazin-1-yl]methyl]phenyl]pyrimidine-2,4-diamine] | 0.0398 to 0.316 | 25.1 to 158
10 | Cc1cccc(-c2nccc(Nc3ccnc(Nc4cccc(CN5CCSCC5)c4)n3)n2)n1 [Compound 39, N4-[2-(6-methyl-2-pyridyl)pyrimidin-4-yl]-N2-[3-(thiomorpholinomethyl)phenyl] pyrimidine-2,4-diamine] | 0.0398 to 0.316 | 25.1 to 158
11 | Cc1cccc(-c2nccc(Nc3ccnc(Nc4cccc(NC(=O)NCC5CNC5)c4)n3)n2)n1 [Compound 477, 1-(azetidin-3-ylmethyl)-3-[3-[[4-[[2-(6-methyl-2-pyridyl)pyrimidin-4-yl]amino]pyrimidin-2-yl]amino]phenyl]urea] | 0.0398 to 0.316 | ≤ 20
12 | Cc1cccc(-c2nccc(Nc3ccnc(Nc4ccc(CN5CC(C(=O)OCC6CNC6)C5)cc4)n3)n2)n1 [Compound 88, azetidin-3-ylmethyl 1-(4-((4-((2-(6-methylpyridin-2-yl)pyrimidin-4-yl)amino)pyrimidin-2-yl)amino)benzyl)azetidine-3-carboxylate] | 0.0398 to 0.316 | 25.1 to 158
13 | Cc1cccc(-c2nccc(Nc3ccnc(Nc4ccc(Cl)c(CN5CCNCC5)c4)n3)n2)n1 [Compound 49, N2-[4-chloro-3-(piperazin-1-ylmethyl)phenyl]-N4-[2-(6-methyl-2-pyridyl)pyrimidin-4-yl]pyrimidine-2,4-diamine] | 0.0398 to 0.316 | 25.1 to 158
14 | Cc1cccc(-c2nccc(Nc3ccnc(Nc4ccc(Cl)c(CN5CCSCC5)c4)n3)n2)n1 [Compound 350, N2-[4-chloro-3-(thiomorpholinomethyl)phenyl]-N4-[2-(6-methyl-2-pyridyl)pyrimidin-4-yl]pyrimidine-2,4-diamine] | 0.398 to 3.16 | 25.1 to 158
15 | Cc1cccc(-c2nccc(Nc3ccnc(Nc4nc(C(=O)OCCN5CCNCC5)cs4)n3)n2)n1 [Compound 551, 2-piperazin-1-ylethyl 2-[[4-[[2-(6-methyl-2-pyridyl)pyrimidin-4-yl]amino]pyrimidin-2-yl]amino]thiazole-4-carboxylate] | 0.398 to 3.16 | 200 to 1260
16 | Fc1ccccc1-c1nccc(Nc2ccnc(Nc3ccc(N4CCOCC4)cc3)n2)n1 [Compound 399, N4-[2-(2-fluorophenyl)pyrimidin-4-yl]-N2-(4-morpholinophenyl)pyrimidine-2,4-diamine] | 3.98 to 31.6 | 25.1 to 158
17 | Cc1cccc(-c2nccc(Nc3ccnc(Nc4ccc(Cl)c(CN5C6CCC5CNC6)c4)n3)n2)n1 [Compound 487, N2-[4-chloro-3-(3,8-diazabicyclo[3.2.1]octan-8-ylmethyl)phenyl]-N4-[2-(6-methyl-2-pyridyl)pyrimidin-4-yl]pyrimidine-2,4-diamine] | 0.0398 to 0.316 | 25.1 to 158
18 | Cc1cccc(-c2nccc(Nc3ccnc(Nc4ccc(Cl)c(N)c4)n3)n2)n1 [Compound 126, N2-(3-amino-4-chloro-phenyl)-N4-[2-(6-methyl-2-pyridyl)pyrimidin-4-yl]pyrimidine-2,4-diamine] | 0.398 to 3.16 | ≤ 20

The next lines start with results.

Row | Ki [1] [nM] | SMILES | IC50 [2] [nM]
19 | 0.0398 to 0.316 | Cc1cccc(-c2nc(Nc3ccnc(Nc4ccc(C(=O)NC5CCNCC5)cc4)n3)c3cccn3n2)n1 [Compound 1037, 4-[[4-[[2-(6-methyl-2-pyridyl)pyrrolo[2,1-f][1,2,4]triazin-4-yl]amino]pyrimidin-2-yl]amino]-N-(4-piperidyl)benzamide] | 25.1 to 158
20 | 0.0398 to 0.316 | Cc1cccc(-c2nccc(Nc3ccnc(Nc4ccc(NC(=O)C5CCNCC5)cc4)n3)n2)n1 [Compound 14, N-(4-((4-((2-(6-methylpyridin-2-yl)pyrimidin-4-yl)amino)pyrimidin-2-yl)amino)phenyl)piperidine-4-carboxamide] | ≤ 20
21 | 0.0398 to 0.316 | Cc1cccc(-c2nccc(Nc3ccnc(Nc4csc(NC(=O)C5(CO)CNC5)c4)n3)n2)n1 [Compound 206, 3-(hydroxymethyl)-N-[4-[[4-[[2-(6-methyl-2-pyridyl)pyrimidin-4-yl]amino]pyrimidin-2-yl]amino]-2-thienyl]azetidine-3-carboxamide] | 200 to 1260
22 | 0.0398 to 0.316 | Cc1cccc(-c2nccc(Nc3ccnc(Nc4ccc(Cl)c(CN5CCN(C)CC5)c4)n3)n2)n1 [Compound 238, N2-[4-chloro-3-[(4-methylpiperazin-1-yl)methyl]phenyl]-N4-[2-(6-methyl-2-pyridyl)pyrimidin-4-yl]pyrimidine-2,4-diamine] | 25.1 to 158
23 | 0.0398 to 0.316 | Cc1cccc(-c2nccc(Nc3ccnc(Nc4ccc(NC5CNC5)cc4)n3)n2)n1 [Compound 199, N2-[4-(azetidin-3-ylamino)phenyl]-N4-[2-(6-methyl-2-pyridyl)pyrimidin-4-yl]pyrimidine-2,4-diamine] | 25.1 to 158
24 | ≤ 0.0316 | Cc1cccc(-c2nccc(Nc3ccnc(Nc4csc(C(=O)N5CCNCC5)c4)n3)n2)n1 [Compound 188, [4-[[4-[[2-(6-methyl-2-pyridyl)pyrimidin-4-yl]amino]pyrimidin-2-yl]amino]-2-thienyl]-piperazin-1-yl-methanone] | 25.1 to 158
25 | 0.0398 to 0.316 | Cc1cccc(-c2nccc(Nc3ccnc(Nc4cccc(C(=O)OC5CNC5)c4)n3)n2)n1 [Compound 260, azetidin-3-yl 3-[[4-[[2-(6-methyl-2-pyridyl)pyrimidin-4-yl]amino]pyrimidin-2-yl]amino]benzoate] | 25.1 to 158
26 | 0.0398 to 0.316 | Cc1cccc(-c2nccc(Nc3ccnc(Nc4ccc(N5CCC(N6CCOCC6)CC5)cc4)n3)n2)n1 [Compound 397, N4-[2-(6-methyl-2-pyridyl)pyrimidin-4-yl]-N2-[4-(4-morpholino-1-piperidyl)phenyl]pyrimidine-2,4-diamine] | 25.1 to 158
27 | 0.0398 to 0.316 | Cc1cccc(-c2nccc(Nc3ccnc(Nc4ccc(N5CCCNCC5)cc4)n3)n2)n1 [Compound 196, N2-[4-(1,4-diazepan-1-yl)phenyl]-N4-[2-(6-methyl-2-pyridyl)pyrimidin-4-yl]pyrimidine-2,4-diamine] | 25.1 to 158
